Measurements: patent US4143010A, “High retention wood preservative composition” (Canadian Patents and Development Limited, priority 1978, dated 1979)
In brackets after ≈: the same amount, converted by molar mass. Where two headings read alike, the source gives them in different places.

Columns and labels:
[1] = Leaching resistance test; type: physicochemical; conditions: for increase of leaching resistance due to additives: with additives versus without
Procedure: Solution I 5% w/v D-18 in chloroform
Solution II 5% w/v D-20 in chloroform
1.0% w/v polystyrene in chloroform
Solution IV same as III but with 5% w/v D-20.
uptake of preservative was calculated from the weight increase. Chloroform solvent was removed from the samples by air drying followed by drying in the oven at 105° C. for 4 hours. Each sample was leached with a standard volume of distilled water at room temperature. Every two hours the water surrounding each sample was removed for spectrophotometric measurement and was replaced by another standard volume of fresh distilled water. Total leaching time was 140 hours. The concentration of D18 and D20 in the leach water was determined by comparing specific absorbance in UV light with the absorbance of known concentrations of D18 and D20 in water. The leached amount of D18 and D20 was recalculated as a percent of the original amount impregnated into the samples before leaching.

[2] = tested on: Lenzites trabea; test: Effectiveness against decay fungi on spruce sections; type: cell-based, Lenzites trabea (S644); conditions: for Average Percentage of Wood Area Colonized: 19 days at 27° C
Procedure: (§1) The fungicidal activity of these compositions was determined in an accelerated experiment with the wood-rotting basidiomycetes Lenzites trabea (S644), Coniophora puteana (A302) and Poria monticola (A384) as test fungi. Small cross-the-grain sections of spruce wood (Picea glauca, a refractory species) were cut 40 microns thick on a microtome. All treatment specimens (0.5 × 0.5 inch) were cut from the same block of wood and were therefore homogeneous in nature. Wood specimens were treated to different retention levels with the active ingredients D18 or D20 with or without the additives. Two of each treatment series were placed on sterilized glass microscopic cover slips (22 mm^2) which were then deposited upon cultures of actively growing decay fungi in Petri dishes. Cultures were grown on a 2% malt extract, 2% agar medium. Two untreated specimens were included in each culture dish as controls. Treatment series were 0.1, 0.5 and 1.75 pcf. Incubation was for 19 days at 27° C. Each test was done in duplicate. Evaluation of the treated samples was made using a stereoscopic microscope (× 10.5 magnification). The percentage of the surface area of each specimen colonized by the test fungus was determined. The smaller the colonized surface area on each wood specimen, the more efficient the preservative composition used for specimen treatment.

[3] = tested on: Coniophora puteana; test: as above; type: cell-based, Coniophora puteana (A302); conditions: 19 days at 27° C
Procedure: as §1

[4] = tested on: Poria monticola; test: as above; type: cell-based, Poria monticola (A384); conditions: for Average Percentage of Wood Area Colonized: 19 days at 27° C
Procedure: as §1

[5] = tested on: Poria monticola; test: Soil-block culture decay test after leaching; type: cell-based; conditions: leached samples
From the text: 5% (w/cv) D18 in chloroform and
5% (w/v) D18 with 1.4% wax and 1% polystyrene in chloroform solution.
After solvent removal by slow air drying and a short period of oven drying both series of samples were exposed to leaching in water under the same conditions (time of exposure, temperature and volume of water for leaching). […] After leaching the samples were further tested for toxicity against a wood-decaying fungus in a modified standard method of testing wood preservatives by laboratory soil-block cultures. Five untreated controls and 5 samples from each preservative series were put into soil jars on wooden feeder blocks inoculated with a standard test fungus Poria monticola. […] Jars were located in an incubation room maintained at 80° F. and 70% R.H. and were opened one by one in five consecutive time intervals, after 25 -- 32 -- 39 -- 46 and 65 days incubation. Wood specimens taken from the jars were oven dried and the weight loss due to decay calculated.

[6] = Test of solubility of oxathiins and additives in various solvents; type: physicochemical
From the text: Table 5 is a solubility chart summarizing a list of organic solvents solubilizing oxathiins and the two additives which can be applied in the same solution.

[7] = tested on: Lenzites trabea; conditions: wood preservative threshold; cited from earlier work
[8] = Accelerated sublimation test of deposits on glass under vacuum; type: physicochemical; conditions: room temperature
From the text: In order to determine the influence of chemical components in the preservative composition on loss of preservative (PCP) under accelerated sublimation conditions, three solutions have been prepared, separately, in carbon tetrachloride as a solvent (in percent w/v).
I. solution: PCP (3.5%) as a preservative.
Ii. solution; PCP (3.5%) and stearic acid (3.5%) as the hydrophobic agent.
III. Solution: PCP (3.5%) stearic acid (3.5%) and polystyrene (0.7%) as the organic polymer.
The same volume of each solution (0.07 ccm/sq.in.) has been poured on the surface of glass template and the solent evaporated at room temperature leaving solid deposits of each sample. Then these deposits of the 3 different preservative compositions (I--II--III), in which the amount of preservative (PCP) was the same, were exposed to vacuum at room temperature in order to accelerate the loss of components. The loss of weight of each single deposit was checked periodically and is expressed in FIG. 1 in percent of original weight of preservative (PCP).

[9] = Hydrophobicity (contact angle of water drops) of treated red pine; type: physicochemical; conditions: contact angle 180°
Procedure: The same solutions of preservative compositions (I--II--III), as in Example I have been used for impregnation of red pine wood samples in order to determine the effect on hydrophobicity of wood. After the samples of wood have been fully saturated by solutions I--II--III, the solvent was then evaporated at room temperature during the next 24hours, leaving solid deposits of the components in the wood. Measurements of contact angles of the surface of water drops on pertinent wood samples were made to show the relative hydrophobicity. The sooner the water soaks in the surface of wood (contact angle 180°) the lower the hydrophobicity of wood and vice versa.

[10] = Immobilization of PCP in spruce microsections, vacuum exposure and microscopy; type: physicochemical
From the text: From both samples, microsections were cut from the wood tissues, approximately 0.35 -0.37 inch from the surface in the radial direction, i.e. within the area, where the PCP was positively detected by previous staining. Numerous microscopic sections (transverse) were made from both samples (A and B) separately. From each of both groups of microsections, typical sections were again microscopically stained with a Silver-Copper complex (which is the basis of the "Penta-Check") to detect again PCP in the microsections. Other typical unstained microsections were mounted into microscopic slides and without any staining examined microscopically. On the viewed microsections of treated wood typical spots were selected where the cell obviously contained significant deposits of PCP, and photographed, at the same magnification. Photographed microsections from sample A and B were then carefully removed from the slides, gently dried off by a touch of absorbent paper at the corner of the microsections, and transferred into a vacuum desiccator by a micromanipulator. The desiccator was then closed and very slowly evacuated. When the vacuum reached 29.5 inch Hg, the desiccator was sealed and the microsections left for 7 days ([…]). Then the desiccator, still at 27 inch vacuum, was slowly filled with air, opened and the microsections transferred onto glass slides and mounted for microscopic examination. This exposure under the same vacuum conditions (29.5 -27 inch Hg) for 7 days gave accelerated sublimation of PCP. The accelerated vacuum test is considered as an accurate simulation of the effect of ordinary atmosphere for an extended time. The microscopic slides were carefully examined, the same spot of each microsection was found (as photographed before vacuum exposure) and rephotographed (at the same magnification) for comparison.
Two pairs of photomicrographs are shown as FIGS. 1 (a ) and 1 (b ), and as FIGS. 2 (a ) and 2 (b ), being typical of observations of as many as 50 microsections. […]

[11] = retention 0.1 pcf, * = mycelia extended over the top but did not colonize all substrate underneath
[12] = water, read-out: Solubility in water

| SMILES | Cumulative Percent Preservative Leached from Wood ([1]; 10 hours of exposure) [%] | Cumulative Percent Preservative Leached from Wood ([1]; 30 hours of exposure) [%] | Cumulative Percent Preservative Leached from Wood ([1]; 70 hours of exposure) [%] | Cumulative Percent Preservative Leached from Wood ([1]; 140 hours of exposure) [%] | increase of leaching resistance due to additives [1] | Average Percentage of Wood Area Colonized [2, 11] [Percentage] | Average Percentage of Wood Area Colonized ([2]; retention 0.5 pcf) [Percentage] | Average Percentage of Wood Area Colonized ([2]; retention 1.75 pcf) [Percentage] | Average Percentage of Wood Area Colonized ([3]; retention 0.1 pcf) [Percentage] | Average Percentage of Wood Area Colonized ([3]; retention 0.5 pcf) [Percentage] | Average Percentage of Wood Area Colonized ([3]; retention 1.75 pcf) [Percentage] | Average Percentage of Wood Area Colonized [4, 11] [Percentage] | Average Percentage of Wood Area Colonized ([4]; retention 0.5 pcf) [Percentage] | Average Percentage of Wood Area Colonized ([4]; retention 1.75 pcf) [Percentage] | solubility [6, 12] [µg/mL] | also measured |
| --- | --- | --- | --- | --- | --- | --- | --- | --- | --- | --- | --- | --- | --- | --- | --- | --- |
| CC1=C(C(=O)Nc2ccccc2)SCCO1 [Solution D18, 2,3-dihydro-5-carboxanilido-6-methyl-1,4-oxathiin] | 14 | 27 | 43 | 56 | 51-57% | 25 | 0 | 0 | 30 | 5 | 5 | 40 | 0 | 0 | 170 (≈ 722 µM) | Cumulative Percent Weight Loss Due to Decay ([5]; 25 days of incubation): 2%; Cumulative Percent Weight Loss Due to Decay ([5]; 32 days of incubation): 4%; Cumulative Percent Weight Loss Due to Decay ([5]; 39 days of incubation): 6%; Cumulative Percent Weight Loss Due to Decay ([5]; 46 days of incubation): 10%; Cumulative Percent Weight Loss Due to Decay ([5]; 65 days of incubation): 21%; known threshold level [7]: 1.1 mg/mL |
| CCCCCCCCCCCCCCCCCC(=O)O [stearic acid] | – | – | – | – | – | – | – | – | – | – | – | – | – | – | – | reduction of PCP sublimation compared to the control ([8]; vacuum, control = PCP alone): 34% |
| CC1=C(C(=O)Nc2ccccc2)S(=O)(=O)CCO1 [Solution D20] | 10 | 38 | 54 | 61 | 17-27% | 50 | 0 | 0 | 40 | 10 | 10 | 50 | 15 | 10 | 1000 (≈ 3740 µM) | effect of additives on effectiveness [2]: increase in the effectiveness of D20 due to the additives; effect of additives on effectiveness [4]: increase in the effectiveness of D20 due to the additives; solubility ([6]; Carbon tetrachloride): - (+); solubility ([6]; Perchloroethylene): - (+) |
| Oc1c(Cl)c(Cl)c(Cl)c(Cl)c1Cl [PCP, pentachlorophenol] | – | – | – | – | – | – | – | – | – | – | – | – | – | – | – | loss of PCP ([8]; deposit on glass under vacuum, % of original weight of PCP (FIG. 1)): 99%; time for water to soak into wood surface [9]: ≤ 40 s; PCP retention after vacuum exposure ([10]; 164 hours, 29.5-27 inch Hg): had disappeared after vacuum exposure; water repellency of microsections ([10]; microscopic sections): not highly water repellent; distribution of PCP in the cells ([10]; microscopic staining): deposited on the cell walls in individual spots |
